Results published in patent US8217048B2, “Inhibitors of serine proteases, particularly HCV NS3-NS4A protease” (Vertex Pharmaceuticals Incorporated, priority 2003, dated 2012).

Key:
HCV NS3-NS4A protease = biological target: T1, HCV NS3-NS4A protease (Hepatitis C virus genotype 1a, UniProt P27958); test: HCV Ki Assay (enzyme, Example 5); type: biochemical; conditions: Ki values, tested according to Example 5 (enzyme); 5AB substrate, tNS3 with KK4A
T1 construct: The buffer, KK4A, DTT, and tNS3 were combined
Method: HPLC Microbore Method for Separation of 5AB Substrate and Products
NH2-Glu-Asp-Val-Val-(alpha)Abu-Cys-Ser-Met-Ser-Tyr-COOH
A stock solution of 20 mM 5AB (or concentration of your choice) was made in DMSO w/0.2M DTT. This was stored in aliquots at −20 C.
Buffer: 50 mM HEPES, pH 7.8; 20% glycerol; 100 mM NaCl
Total assay volume was 100 μL
The buffer, KK4A, DTT, and tNS3 were combined; distributed 78 μL each into wells of 96 well plate. This was incubated at 30 C for ˜5-10 min.
2.5 μL of appropriate concentration of test compound was dissolved in DMSO (DMSO only for control) and added to each well. This was incubated at room temperature for 15 min.
Initiated reaction by addition of 20 μL of 250 μM 5AB substrate (25 μM concentration is equivalent or slightly lower than the Km for 5AB).
Incubated for 20 min at 30 C.
Terminated reaction by addition of 25 μL of 10% TFA
Transferred 120 μL aliquots to HPLC vials
Separated SMSY product from substrate and KK4A by the following method:
Microbore Separation Method:
Instrumentation: Agilent 1100
Column thermostated chamber G1316A
Diode array detector G1315A
Solvent A=HPLC grade water+0.1% TFA
Solvent B=HPLC grade acetonitrile+0.1% TFA
Stop time: 17 min Post-run time: 10 min.

[1] = tested on: Cells containing hepatitis C virus (HCV) replicon; test: HCV Replicon Cell Assay (Example 4); type: cell-based; conditions: 48 h, tested according to Example 4 (cell), 50% inhibition of HCV RNA level, 48-hour incubation
Method: HCV Replicon Cell Assay Protocol
Cells containing hepatitis C virus (HCV) replicon were maintained in DMEM containing 10% fetal bovine serum (FBS), 0.25 mg per ml of G418, with appropriate supplements (media A).
On day 1, replicon cell monolayer was treated with a trypsin:EDTA mixture, removed, and then media A was diluted into a final concentration of 100,000 cells per ml wit. 10,000 cells in 100 ul were plated into each well of a 96-well tissue culture plate, and cultured overnight in a tissue culture incubator at 37° C.
On day 2, compounds (in 100% DMSO) were serially diluted into DMEM containing 2% FBS, 0.5% DMSO, with appropriate supplements (media B). The final concentration of DMSO was maintained at 0.5% throughout the dilution series.
Media on the replicon cell monolayer was removed, and then media B containing various concentrations of compounds was added. Media B without any compound was added to other wells as no compound controls.
Cells were incubated with compound or 0.5% DMSO in media B for 48 hours in a tissue culture incubator at 37° C. At the end of the 48-hour incubation, the media was removed, and the replicon cell monolayer was washed once with PBS and stored at −80° C. prior to RNA extraction.
Culture plates with treated replicon cell monolayers were thawed, and a fixed amount of another RNA virus, such as Bovine Viral Diarrhea Virus (BVDV) was added to cells in each well, RNA extraction reagents (such as reagents from RNeasy kits) were added to the cells immediately to avoid degradation of RNA. Total RNA was extracted according the instruction of manufacturer with modification to improve extraction efficiency and consistency. Finally, total cellular RNA, including HCV replicon RNA, was eluted and stored at −80° C. until further processing.
A Taqman real-time RT-PCR quantification assay was set up with two sets of specific primers and probe. One was for HCV and the other was for BVDV. Total RNA extractants from treated HCV replicon cells was added to the PCR reactions for quantification of both HCV and BVDV RNA in the same PCR well. Experimental failure was flagged and rejected based on the level of BVDV RNA in each well. The level of HCV RNA in each well was calculated according to a standard curve run in the same PCR plate. The percentage of inhibition or decrease of HCV RNA level due to compound treatment was calculated using the DMSO or no compound control as 0% of inhibition. The IC50 (concentration at which 50% inhibition of HCV RNA level is observed) was calculated from the titration curve of any given compound.

T1 sequence (P27958 1658-1711): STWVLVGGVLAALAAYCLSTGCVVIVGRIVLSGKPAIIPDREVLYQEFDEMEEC
T1 sequence (P27958 1027-1208): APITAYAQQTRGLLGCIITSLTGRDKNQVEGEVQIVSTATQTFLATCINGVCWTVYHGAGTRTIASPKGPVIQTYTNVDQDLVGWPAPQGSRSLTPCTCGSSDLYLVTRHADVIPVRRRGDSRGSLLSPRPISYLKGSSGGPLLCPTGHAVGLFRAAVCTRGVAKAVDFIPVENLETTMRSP

SMILES	Ki (HCV NS3-NS4A protease) [nM]	IC50 [1] [nM]
CCC[C@H](NC(=O)[C@@H]1C[C@@H](Oc2ccc(Cl)c3ccccc23)CN1C(=O)[C@@H](NC(=O)[C@@H](NC(=O)c1cnccn1)C1CCCCC1)C(C)(C)C)C(=O)C(=O)NC1CC1 [Compound 40]	< 100	< 500
CCC[C@H](NC(=O)C1C[C@@H](Oc2cc(Cl)cc(Cl)c2)CN1C(=O)[C@@H](NC(=O)[C@@H](NC(=O)c1cnccn1)C1CCCCC1)C(C)(C)C)C(=O)C(=O)NC1CC1 (stereo partly shown) [Compound 12]	100 to 300	< 500
CCC[C@H](NC(=O)[C@@H]1C[C@@H](Oc2ccc(C(F)(F)F)cc2)CN1C(=O)[C@@H](NC(=O)[C@@H](NC(=O)c1cnccn1)C1CCCCC1)C(C)(C)C)C(=O)C(=O)NC1CC1 [Compound 13]	100 to 300	< 500
CCC[C@H](NC(=O)[C@@H]1C[C@@H](Oc2ccc(-c3ccccc3)cc2)CN1C(=O)[C@@H](NC(=O)[C@@H](NC(=O)c1cnccn1)C1CCCCC1)C(C)(C)C)C(=O)C(=O)NC1CC1 [Compound 19]	< 100	< 500
CCC[C@H](NC(=O)[C@@H]1C[C@@H](Oc2ccc(C(=O)OC(C)C)cc2)CN1C(=O)[C@@H](NC(=O)[C@@H](NC(=O)c1cnccn1)C1CCCCC1)C(C)(C)C)C(=O)C(=O)NC1CC1 [Compound 61]	< 100	< 500
CCC[C@H](NC(=O)[C@@H]1C[C@@H](Oc2cccc(C(=O)NC)c2)CN1C(=O)[C@@H](NC(=O)[C@@H](NC(=O)c1cnccn1)C1CCCCC1)C(C)(C)C)C(=O)C(=O)NC1CC1 [Compound 46]	< 100	< 500
CCC[C@H](NC(=O)[C@@H]1C[C@@H](Oc2ccc(OC)cc2Cl)CN1C(=O)[C@@H](NC(=O)[C@@H](NC(=O)c1cnccn1)C1CCCCC1)C(C)(C)C)C(=O)C(=O)NC1CC1 [Compound 64]	< 100	< 500
CCC[C@H](NC(=O)C1C[C@@H](Oc2ccccc2C(F)(F)F)CN1C(=O)[C@@H](NC(=O)[C@@H](NC(=O)c1cnccn1)C1CCCCC1)C(C)(C)C)C(=O)C(=O)NC1CC1 (stereo partly shown) [Compound 6]	> 300	> 1000
CCC[C@H](NC(=O)[C@@H]1C[C@@H](Oc2cc(F)cc(F)c2)CN1C(=O)[C@@H](NC(=O)[C@@H](NC(=O)c1cnccn1)C1CCCCC1)C(C)(C)C)C(=O)C(=O)NC1CC1 [Compound 55]	100 to 300	< 500
CCC[C@H](NC(=O)[C@@H]1C[C@@H](Oc2cccc(F)c2)CN1C(=O)[C@@H](NC(=O)[C@@H](NC(=O)c1cnccn1)C1CCCCC1)C(C)(C)C)C(=O)C(=O)NC1CC1 [Compound 18]	100 to 300	< 500
CCC[C@H](NC(=O)[C@@H]1C[C@@H](Oc2nc(C(F)(F)F)nc3ccccc23)CN1C(=O)[C@@H](NC(=O)[C@@H](NC(=O)c1cnccn1)C1CCCCC1)C(C)(C)C)C(=O)C(=O)NC1CC1 [Compound 60]	100 to 300	> 1000
CCC[C@H](NC(=O)[C@@H]1C[C@@H](Oc2ccccn2)CN1C(=O)[C@@H](NC(=O)[C@@H](NC(=O)c1cnccn1)C1CCCCC1)C(C)(C)C)C(=O)C(=O)NC1CC1 [Compound 58]	< 100	< 500
CCC[C@H](NC(=O)C1C[C@@H](Oc2c(F)cccc2F)CN1C(=O)[C@@H](NC(=O)[C@@H](NC(=O)c1cnccn1)C1CCCCC1)C(C)(C)C)C(=O)C(=O)NC1CC1 (stereo partly shown) [Compound 10]	100 to 300	500 to 1000
CCC[C@H](NC(=O)[C@@H]1C[C@@H](Oc2ccnc3ccccc23)CN1C(=O)[C@@H](NC(=O)[C@@H](NC(=O)c1cnccn1)C1CCCCC1)C(C)(C)C)C(=O)C(=O)NC1CC1 [Compound 39]	< 100	< 500
CCC[C@H](NC(=O)[C@@H]1C[C@@H](Oc2cccc(C(F)(F)F)c2)CN1C(=O)[C@@H](NC(=O)[C@@H](NC(=O)c1cnccn1)C1CCCCC1)C(C)(C)C)C(=O)C(=O)NC1CC1 [Compound 22]	100 to 300	< 500
CCC[C@H](NC(=O)C1C[C@@H](Oc2cc(F)ccc2F)CN1C(=O)[C@@H](NC(=O)[C@@H](NC(=O)c1cnccn1)C1CCCCC1)C(C)(C)C)C(=O)C(=O)NC1CC1 (stereo partly shown) [Compound 8]	100 to 300	500 to 1000
CCC[C@H](NC(=O)[C@@H]1C[C@@H](Oc2ncnc3ccccc23)CN1C(=O)[C@@H](NC(=O)[C@@H](NC(=O)c1cnccn1)C1CCCCC1)C(C)(C)C)C(=O)C(=O)NC1CC1 [Compound 42]	< 100	< 500
CCC[C@H](NC(=O)[C@@H]1C[C@@H](Oc2ccc([N+](=O)[O-])cc2)CN1C(=O)[C@@H](NC(=O)[C@@H](NC(=O)c1cnccn1)C1CCCCC1)C(C)(C)C)C(=O)C(=O)NC1CC1 [Compound 44]	< 100	< 500
CCC[C@H](NC(=O)[C@@H]1C[C@@H](Oc2ccnc3cc(C(F)(F)F)ccc23)CN1C(=O)[C@@H](NC(=O)[C@@H](NC(=O)c1cnccn1)C1CCCCC1)C(C)(C)C)C(=O)C(=O)NC1CC1 [Compound 67]	< 100	< 500
CCC[C@H](NC(=O)[C@@H]1C[C@@H](Oc2ccc(OC)c3ccccc23)CN1C(=O)[C@@H](NC(=O)[C@@H](NC(=O)c1cnccn1)C1CCCCC1)C(C)(C)C)C(=O)C(=O)NC1CC1 [Compound 38]	< 100	< 500
CCC[C@H](NC(=O)[C@@H]1C[C@@H](Oc2ccccc2)CN1C(=O)[C@@H](NC(=O)[C@@H](NC(=O)c1cnccn1)C1CCCCC1)C(C)(C)C)C(=O)C(=O)NC1CC1 [Compound 35]	< 100	< 500
CCC[C@H](NC(=O)[C@@H]1C[C@@H](Oc2ccc(NC(C)=O)cc2)CN1C(=O)[C@@H](NC(=O)[C@@H](NC(=O)c1cnccn1)C1CCCCC1)C(C)(C)C)C(=O)C(=O)NC1CC1 [Compound 51]	< 100	> 1000
CCC[C@H](NC(=O)[C@@H]1C[C@@H](Oc2ccc(Cl)c(Cl)c2)CN1C(=O)[C@@H](NC(=O)[C@@H](NC(=O)c1cnccn1)C1CCCCC1)C(C)(C)C)C(=O)C(=O)NC1CC1 [Compound 53]	< 100	< 500
CCC[C@H](NC(=O)C1C[C@@H](Oc2cc(C(F)(F)F)cc(C(F)(F)F)c2)CN1C(=O)[C@@H](NC(=O)[C@@H](NC(=O)c1cnccn1)C1CCCCC1)C(C)(C)C)C(=O)C(=O)NC1CC1 (stereo partly shown) [Compound 11]	> 300	> 1000
CCC[C@H](NC(=O)[C@@H]1C[C@@H](Oc2ccnc3cc(OC)ccc23)CN1C(=O)[C@@H](NC(=O)[C@@H](NC(=O)c1cnccn1)C1CCCCC1)C(C)(C)C)C(=O)C(=O)NC1CC1 [Compound 41]	< 100	> 1000
CCC[C@H](NC(=O)[C@@H]1C[C@@H](Oc2cccc(NC(C)=O)c2)CN1C(=O)[C@@H](NC(=O)[C@@H](NC(=O)c1cnccn1)C1CCCCC1)C(C)(C)C)C(=O)C(=O)NC1CC1 [Compound 49]	< 100	> 1000
CCC[C@H](NC(=O)C1C[C@@H](Oc2cccc(F)c2F)CN1C(=O)[C@@H](NC(=O)[C@@H](NC(=O)c1cnccn1)C1CCCCC1)C(C)(C)C)C(=O)C(=O)NC1CC1 (stereo partly shown) [Compound 7]	100 to 300	< 500
CCC[C@H](NC(=O)[C@@H]1C[C@@H](Oc2ccc(F)cc2)CN1C(=O)[C@@H](NC(=O)[C@@H](NC(=O)c1cnccn1)C1CCCCC1)C(C)(C)C)C(=O)C(=O)NC1CC1 [Compound 43]	< 100	< 500
CCC[C@H](NC(=O)[C@@H]1C[C@@H](Oc2ccc(OC(F)(F)F)cc2)CN1C(=O)[C@@H](NC(=O)[C@@H](NC(=O)c1cnccn1)C1CCCCC1)C(C)(C)C)C(=O)C(=O)NC1CC1 [Compound 14]	100 to 300	< 500
